The results in this text go back to ChEMBL document CHEMBL5500423, “More than an Amide Bioisostere: Discovery of 1,2,4-Triazole-containing Pyrazolo[1,5-a]pyrimidine Host CSNK2 Inhibitors for Combatting β-Coronavirus Replication” (J Med Chem, 2024).

The target of series [1] is T1, Casein kinase II subunit alpha' (Homo sapiens, UniProt P19784). The series can be described thus: Inhibition of NLuc-fused CSNK2A2 (unknown origin) expressed in digitonin-permeabilized HEK293 cells incubated for 25 mins by NanoBRET assay. Type of series: cell-based. A general note: BRET reads energy transfer from a luciferase to a nearby fluorophore.
The nature of series [2]: Apparent permeability from basolateral to apical side in MDCK-MDR1 cells at 1 uM incubated for 2 hrs by fluorescence plate reader analysis. Type of series: ADME, cell-based, Canis lupus familiaris. As to conditions: dog, mdck-mdr1, 2 h.
Series [3] addresses T2, Homeodomain-interacting protein kinase 4 (Homo sapiens, UniProt Q8NE63).
T2 sequence (Q8NE63 whole entry): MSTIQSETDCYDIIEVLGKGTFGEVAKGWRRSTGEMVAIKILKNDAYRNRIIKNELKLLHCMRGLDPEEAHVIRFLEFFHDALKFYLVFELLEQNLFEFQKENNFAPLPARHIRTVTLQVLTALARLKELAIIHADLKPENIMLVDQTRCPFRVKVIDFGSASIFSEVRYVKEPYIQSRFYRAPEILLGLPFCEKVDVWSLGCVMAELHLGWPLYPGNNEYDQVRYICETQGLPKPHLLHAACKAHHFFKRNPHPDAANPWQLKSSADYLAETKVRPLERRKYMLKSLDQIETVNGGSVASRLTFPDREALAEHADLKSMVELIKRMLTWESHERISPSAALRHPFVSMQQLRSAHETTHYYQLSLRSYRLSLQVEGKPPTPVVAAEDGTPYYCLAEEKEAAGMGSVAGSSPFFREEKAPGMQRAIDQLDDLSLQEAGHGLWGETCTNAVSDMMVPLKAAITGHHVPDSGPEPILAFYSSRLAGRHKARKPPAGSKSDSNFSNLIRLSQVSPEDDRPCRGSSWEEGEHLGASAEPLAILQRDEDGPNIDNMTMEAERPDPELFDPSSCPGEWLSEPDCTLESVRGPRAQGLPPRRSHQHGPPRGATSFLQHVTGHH
The series can be described thus: Inhibition of human HIPK4 expressed in HEK293 cells incubated for 2 hrs by NanoBRET assay. Type of series: cell-based.

The target in series [4] is T1, Casein kinase II subunit alpha'. Nature of the series: Inhibition of NLuc-fused CSNK2A2 (unknown origin) expressed in HEK293 cells incubated for 2 hrs by NanoBRET assay. Type of series: cell-based.
Target sequence in this assay (P19784 whole entry, the tested form may be a part): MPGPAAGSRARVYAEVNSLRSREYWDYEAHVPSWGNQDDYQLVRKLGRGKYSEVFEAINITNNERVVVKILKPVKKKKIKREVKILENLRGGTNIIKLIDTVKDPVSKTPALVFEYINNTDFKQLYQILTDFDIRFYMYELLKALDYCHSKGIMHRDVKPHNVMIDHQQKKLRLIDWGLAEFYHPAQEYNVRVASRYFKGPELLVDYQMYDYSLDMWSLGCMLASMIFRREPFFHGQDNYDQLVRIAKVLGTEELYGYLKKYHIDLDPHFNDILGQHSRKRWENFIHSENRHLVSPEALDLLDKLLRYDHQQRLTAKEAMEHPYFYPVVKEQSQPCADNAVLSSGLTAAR
The nature of series [5]: Intrinsic clearance in male CD-1 mouse at 3 mg/kg, iv measured after 5 hrs by LC-MS/MS analysis. Particulars: in vivo. Type of series: ADME, organism-based.
Series [6] deals with T1, Casein kinase II subunit alpha'. Nature of the series: Inhibition of CSNK2A2 (unknown origin) in presence of ATP by Eurofins radiometric enzymatic assay.
Target sequence in this assay (P19784 whole entry, the tested form may be a part): as above
Series [7] can be described thus: Cytotoxicity against human A549-ACE2 cells assessed as reduction in cell viability at >10 uM pretreated for 1 hrs followed by mock infection for 2 hrs and replacement with fresh medium containing compound and measured 48 hrs post mock-infection by LDH assay. Type of series: toxicity, cell-based. Particulars: a549-ace2, 49 h.
Series [8] has as its target Dual specificity protein kinase CLK2 (Homo sapiens, UniProt P49760). The series can be described thus: Inhibition of human CLK2 expressed in HEK293 cells incubated for 2 hrs by NanoBRET assay. Type of series: cell-based.
Series [9] deals with Dual specificity protein kinase CLK4 (Homo sapiens, UniProt Q9HAZ1). Nature of the series: Inhibition of human CLK4 expressed in HEK293 cells incubated for 2 hrs by NanoBRET assay. Type of series: cell-based.
Dual specificity protein kinase CLK4, sequence (Q9HAZ1 whole entry): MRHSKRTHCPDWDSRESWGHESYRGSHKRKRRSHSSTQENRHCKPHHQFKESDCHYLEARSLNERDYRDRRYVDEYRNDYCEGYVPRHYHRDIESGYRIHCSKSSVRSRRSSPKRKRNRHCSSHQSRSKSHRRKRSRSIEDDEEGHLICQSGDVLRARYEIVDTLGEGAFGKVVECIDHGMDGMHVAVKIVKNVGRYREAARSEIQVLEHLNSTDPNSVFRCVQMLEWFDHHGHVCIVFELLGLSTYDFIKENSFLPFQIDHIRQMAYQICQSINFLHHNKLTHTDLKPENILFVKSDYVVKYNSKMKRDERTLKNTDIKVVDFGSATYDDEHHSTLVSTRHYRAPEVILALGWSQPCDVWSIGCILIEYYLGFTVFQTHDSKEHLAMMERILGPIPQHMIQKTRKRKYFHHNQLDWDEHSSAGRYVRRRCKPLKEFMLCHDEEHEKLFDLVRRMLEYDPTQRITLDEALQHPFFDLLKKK
For series [10], the target named is Dual specificity protein kinase CLK1 (Homo sapiens, UniProt P49759). Nature of the series: Inhibition of human CLK1 expressed in HEK293 cells incubated for 2 hrs by NanoBRET assay. Type of series: cell-based.
Dual specificity protein kinase CLK1, sequence (P49759 whole entry): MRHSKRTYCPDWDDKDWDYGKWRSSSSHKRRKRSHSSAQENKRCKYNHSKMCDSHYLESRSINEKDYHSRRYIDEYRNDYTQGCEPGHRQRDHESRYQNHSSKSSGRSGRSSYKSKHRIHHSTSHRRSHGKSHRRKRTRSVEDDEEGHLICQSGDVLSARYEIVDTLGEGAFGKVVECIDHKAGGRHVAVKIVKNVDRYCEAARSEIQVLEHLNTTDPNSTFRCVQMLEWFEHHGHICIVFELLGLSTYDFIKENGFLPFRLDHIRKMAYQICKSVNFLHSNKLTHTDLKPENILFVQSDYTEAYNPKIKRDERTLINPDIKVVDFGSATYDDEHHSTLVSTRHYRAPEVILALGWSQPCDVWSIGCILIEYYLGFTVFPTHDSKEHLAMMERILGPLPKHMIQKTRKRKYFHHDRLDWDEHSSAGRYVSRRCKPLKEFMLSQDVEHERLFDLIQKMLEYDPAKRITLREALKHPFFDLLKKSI
Series [11] concerns the target Casein kinase II subunit alpha (Homo sapiens, UniProt P68400). Nature of the series: Inhibition of CSNK2A1 (unknown origin) in presence of ATP by Eurofins radiometric enzymatic assay.
A further series relates to Murine hepatitis virus. Nature of the series: Antiviral activity against Murine hepatitis virus infected in mouse DBT cells preincubated with cells for 1 hrs followed by viral infection and measured after 10 hrs by luminometer. As to conditions: Murine coronavirus. Type of series: functional, organism-based.
Series [12] concerns the target Dual specificity tyrosine-phosphorylation-regulated kinase 1A (Homo sapiens) (UniProt Q13627). The series can be described thus: Binding affinity to human DYRK1A expressed in HEK293 cells assessed as target occupancy upto 3 uM incubated for 2 hrs by NanoBRET assay. Type of series: cell-based.
Series [13] can be described thus: Apparent permeability from apical to basolateral side in MDCK-MDR1 cells at 1 uM incubated for 2 hrs by fluorescence plate reader analysis. Type of series: ADME, cell-based, Canis lupus familiaris. Particulars: dog, mdck-mdr1, 2 h.
The target of series [14] is Cyclin-dependent kinase 7 (Homo sapiens, UniProt P50613). Nature of the series: Inhibition of human CDK7 expressed in HEK293 cells incubated for 2 hrs by NanoBRET assay. Type of series: cell-based.
Cyclin-dependent kinase 7, sequence (P50613 whole entry, canonical isoform): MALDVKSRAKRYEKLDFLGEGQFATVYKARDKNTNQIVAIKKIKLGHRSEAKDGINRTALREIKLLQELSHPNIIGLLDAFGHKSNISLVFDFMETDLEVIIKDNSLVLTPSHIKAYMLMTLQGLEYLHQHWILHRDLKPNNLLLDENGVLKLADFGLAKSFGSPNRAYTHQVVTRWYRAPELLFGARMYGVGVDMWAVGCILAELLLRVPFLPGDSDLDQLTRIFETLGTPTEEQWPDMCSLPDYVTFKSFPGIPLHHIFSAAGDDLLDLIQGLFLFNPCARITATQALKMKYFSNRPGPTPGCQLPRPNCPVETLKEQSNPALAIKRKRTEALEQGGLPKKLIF
The target of series [15] is Phosphorylase b kinase gamma catalytic chain, skeletal muscle/heart isoform (Homo sapiens, UniProt Q16816). The series can be described thus: Inhibition of human PHKG1 expressed in HEK293 cells incubated for 2 hrs by NanoBRET assay. Type of series: cell-based.
Phosphorylase b kinase gamma catalytic chain, skeletal muscle/heart isoform, sequence (Q16816 whole entry, canonical isoform): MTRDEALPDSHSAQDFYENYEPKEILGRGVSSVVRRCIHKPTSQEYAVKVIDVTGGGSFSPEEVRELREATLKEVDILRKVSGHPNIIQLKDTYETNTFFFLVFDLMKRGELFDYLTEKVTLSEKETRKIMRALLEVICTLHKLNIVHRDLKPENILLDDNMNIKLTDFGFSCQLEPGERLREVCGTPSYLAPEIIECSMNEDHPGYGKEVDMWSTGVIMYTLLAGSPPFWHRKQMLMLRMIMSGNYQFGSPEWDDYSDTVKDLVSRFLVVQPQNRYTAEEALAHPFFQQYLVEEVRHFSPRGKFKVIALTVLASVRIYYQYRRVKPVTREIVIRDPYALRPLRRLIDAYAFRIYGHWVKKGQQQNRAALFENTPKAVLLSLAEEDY
Series [16] deals with T1, Casein kinase II subunit alpha'. The series can be described thus: Inhibition of human CSNK2A2 expressed in HEK293 cells incubated for 2 hrs by NanoBRET assay. Type of series: cell-based.
Target sequence in this assay (P19784 whole entry, the tested form may be a part): as the sequence (P19784 whole entry, the tested form may be a part) above
Series [17] deals with Casein kinase 2 (Homo sapiens) (UniProt P67870+P68400+P19784+Q8NEV1). Nature of the series: Inhibition of CSNK2 downstream signaling in human A549-ACE2 cells assessed as reduction in EIF2S2 phosphorylation at 1 to 5 uM measured after 24 hrs by Western blot analysis. Particulars: dose 1-5 µM. Type of series: cell-based. In general terms: Immunoblotting shows a protein as a band on a membrane.

Series [18] addresses Death-associated protein kinase 2 (Homo sapiens, UniProt Q9UIK4). The series can be described thus: Inhibition of human DAPK2 expressed in HEK293 cells incubated for 2 hrs by NanoBRET assay. Type of series: cell-based.
Series [19] can be described thus: Cytotoxicity against human A549-ACE2 cells assessed as cell viability at 0.1 uM incubated for 48 hrs by CellTiter-Glo2 assay relative to control. Particulars: a549-ace2, 48 h. Type of series: toxicity, cell-based. Background: In ATP-based viability assays light output follows the ATP content of the culture.
The nature of series [20]: Kinetic solubility of compound in PBS at pH 7.4 incubated for 24 hrs by HPLC analysis. Type of series: physicochemical. As to conditions: buffer, pH 7.4, 24 h.
Series [21] is described as follows: Cytotoxicity against human A549-ACE2 cells assessed as cell viability at 1 uM incubated for 48 hrs by CellTiter-Glo2 assay relative to control. Type of series: toxicity, cell-based. Particulars: a549-ace2, 48 h.

As a reminder, the IC50 is the concentration that gives 50% inhibition.

The source made the active and inactive calls. No cut-off for these calls is given here.

Dual specificity protein kinase CLK2, sequence (P49760 whole entry): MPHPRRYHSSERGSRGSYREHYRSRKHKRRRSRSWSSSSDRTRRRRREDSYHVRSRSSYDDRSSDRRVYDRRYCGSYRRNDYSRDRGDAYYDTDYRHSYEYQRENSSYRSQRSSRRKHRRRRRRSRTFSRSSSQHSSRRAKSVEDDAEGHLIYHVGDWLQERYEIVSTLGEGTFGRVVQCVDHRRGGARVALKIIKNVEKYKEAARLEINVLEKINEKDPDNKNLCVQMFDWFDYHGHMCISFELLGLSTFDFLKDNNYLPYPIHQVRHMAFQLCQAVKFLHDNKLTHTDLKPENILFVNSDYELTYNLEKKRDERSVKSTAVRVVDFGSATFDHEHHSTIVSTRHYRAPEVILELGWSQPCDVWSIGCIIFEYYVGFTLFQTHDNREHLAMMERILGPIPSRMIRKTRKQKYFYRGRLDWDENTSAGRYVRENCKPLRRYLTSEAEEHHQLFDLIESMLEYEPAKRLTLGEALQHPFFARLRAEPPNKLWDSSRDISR
Casein kinase II subunit alpha, sequence (P68400 whole entry): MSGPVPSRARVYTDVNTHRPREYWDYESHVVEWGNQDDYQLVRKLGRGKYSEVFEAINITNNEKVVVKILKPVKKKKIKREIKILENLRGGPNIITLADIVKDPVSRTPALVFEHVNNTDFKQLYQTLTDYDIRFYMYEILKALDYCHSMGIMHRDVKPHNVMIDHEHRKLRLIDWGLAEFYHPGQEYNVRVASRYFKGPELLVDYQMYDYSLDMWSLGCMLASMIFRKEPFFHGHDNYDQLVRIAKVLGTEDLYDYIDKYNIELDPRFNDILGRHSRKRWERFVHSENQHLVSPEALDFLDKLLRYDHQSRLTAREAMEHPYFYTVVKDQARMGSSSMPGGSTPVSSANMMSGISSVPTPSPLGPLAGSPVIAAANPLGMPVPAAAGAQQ
Death-associated protein kinase 2, sequence (Q9UIK4 whole entry): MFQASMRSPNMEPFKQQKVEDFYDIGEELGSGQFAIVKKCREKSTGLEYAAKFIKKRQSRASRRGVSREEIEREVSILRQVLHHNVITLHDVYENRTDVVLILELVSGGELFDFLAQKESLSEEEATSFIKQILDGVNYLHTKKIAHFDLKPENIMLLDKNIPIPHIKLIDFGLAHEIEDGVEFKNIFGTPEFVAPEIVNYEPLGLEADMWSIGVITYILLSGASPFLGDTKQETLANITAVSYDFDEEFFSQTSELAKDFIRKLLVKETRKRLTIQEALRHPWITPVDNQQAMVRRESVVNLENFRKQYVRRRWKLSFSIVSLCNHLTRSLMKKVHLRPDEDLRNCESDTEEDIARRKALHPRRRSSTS

Take `CCN(CCN)c1ccc(Nc2cc(NC3CC3)n3ncc(C#N)c3n2)cc1-n1cnnc1`: the IC50 in [1] was 80 nM; in series [3], 25100 nM; in [4] it was 316 nM; in series [6], 0.66 nM; in series [8], 3160 nM; in [9], 2510 nM. Further, the half-inhibitory concentration (IC50) in series [10] is 5010 nM; in [11] it was 1.7 nM; in the series on Murine hepatitis virus, 200 nM; in series [14], 15800 nM; in series [15] it was 6310 nM; in series [16] it was 316 nM. This compound also showed a half-maximal inhibitory concentration (IC50) in series [18] of 2510 nM. In addition, the inhibition result in series [1] was “Dose-Dependent Effect”. Also, the Papp in series [2] is 0.36 10^-6 cm/s; in series [13], 0.16 10^-6 cm/s. For the same compound, in [5], the CL amounted to 86 mL/min/kg. Moreover, in [7], the Activity result is given as “Non-Toxic”. Moreover, the outcome in series [12] was inactive. In series [17], the inhibition entry is “Active”.

Turning to `CN(CCN)c1ccc(Nc2cc(NC3CC3)n3ncc(C#N)c3n2)cc1-n1cnnc1`, the IC50 in series [4] is 251 nM; in the series on Murine hepatitis virus, 398 nM. In addition, the Activity in series [19] was 99%; in series [21], 87%. The compound also had a Kinetic_solubility in series [20] of 45 µg/mL.

Turning to `COCCNc1ccc(Nc2cc(NC3CC3)n3ncc(C#N)c3n2)cc1-n1cnnc1`, the half-inhibitory concentration (IC50) in series [4] was 126 nM; in the series on Murine hepatitis virus, 316 nM. Also, the Activity in series [19] and in series [21] was 99% throughout. The compound further had a Kinetic_solubility in [20] of 0.8 µg/mL.

`N#Cc1cnn2c(NC3CC3)cc(Nc3cccc(-n4cnnc4)c3)nc12`: the 50% inhibitory concentration (IC50) is 3.98 nM in [4] and 39.8 nM in the series with Murine hepatitis virus. Also, the values for the Activity in [19] and in series [21] were 100% and 85%, respectively. Besides, the Kinetic_solubility in series [20] was 0.47 µg/mL.

On to `C[C@H](N)CN(C)c1ccc(Nc2cc(NC3CC3)n3ncc(C#N)c3n2)cc1-n1cnnc1`, for which the IC50 in series [4] is 316 nM; in the series on Murine hepatitis virus, 200 nM. Moreover, the Activity in series [19] is listed as 93%; in [21], 76%. Besides, in series [20], the Kinetic_solubility stood at 50 µg/mL.

As for `N#Cc1cnn2c(NC3CC3)cc(Nc3ccnc(-n4cnnc4)c3)nc12`, the IC50 in series [4] is 10 nM; with Murine hepatitis virus, 63.1 nM. In addition, the Activity in [19] was determined as 99%; in series [21], 98%. For the same compound, in series [20], the Kinetic_solubility worked out at 0.27 µg/mL.

On to `C[C@@H](N)CN(C)c1ccc(Nc2cc(NC3CC3)n3ncc(C#N)c3n2)cc1-n1cnnc1`, for which the figures for the IC50 (in series [4]; in the series with Murine hepatitis virus) were 251 nM and 501 nM, respectively. The Activity came to 95% in series [19] and 91% in series [21]. Also, the Kinetic_solubility in series [20] is 62 µg/mL.

Consider `CN(CCO)c1ccc(Nc2cc(NC3CC3)n3ncc(C#N)c3n2)cc1-n1cnnc1`, for which the half-inhibitory concentration (IC50) in series [4] is 126 nM; in the series on Murine hepatitis virus it was 200 nM. Also, the Activity stood at 95% in [19] and 97% in series [21]. Moreover, the Kinetic_solubility in series [20] was found to be 38 µg/mL.
